Where a name gives a salt, the structure may show the parent alone.
Target: T1, androgen receptor (Rattus norvegicus, UniProt P15207)
T1 sequence (P15207 1-902): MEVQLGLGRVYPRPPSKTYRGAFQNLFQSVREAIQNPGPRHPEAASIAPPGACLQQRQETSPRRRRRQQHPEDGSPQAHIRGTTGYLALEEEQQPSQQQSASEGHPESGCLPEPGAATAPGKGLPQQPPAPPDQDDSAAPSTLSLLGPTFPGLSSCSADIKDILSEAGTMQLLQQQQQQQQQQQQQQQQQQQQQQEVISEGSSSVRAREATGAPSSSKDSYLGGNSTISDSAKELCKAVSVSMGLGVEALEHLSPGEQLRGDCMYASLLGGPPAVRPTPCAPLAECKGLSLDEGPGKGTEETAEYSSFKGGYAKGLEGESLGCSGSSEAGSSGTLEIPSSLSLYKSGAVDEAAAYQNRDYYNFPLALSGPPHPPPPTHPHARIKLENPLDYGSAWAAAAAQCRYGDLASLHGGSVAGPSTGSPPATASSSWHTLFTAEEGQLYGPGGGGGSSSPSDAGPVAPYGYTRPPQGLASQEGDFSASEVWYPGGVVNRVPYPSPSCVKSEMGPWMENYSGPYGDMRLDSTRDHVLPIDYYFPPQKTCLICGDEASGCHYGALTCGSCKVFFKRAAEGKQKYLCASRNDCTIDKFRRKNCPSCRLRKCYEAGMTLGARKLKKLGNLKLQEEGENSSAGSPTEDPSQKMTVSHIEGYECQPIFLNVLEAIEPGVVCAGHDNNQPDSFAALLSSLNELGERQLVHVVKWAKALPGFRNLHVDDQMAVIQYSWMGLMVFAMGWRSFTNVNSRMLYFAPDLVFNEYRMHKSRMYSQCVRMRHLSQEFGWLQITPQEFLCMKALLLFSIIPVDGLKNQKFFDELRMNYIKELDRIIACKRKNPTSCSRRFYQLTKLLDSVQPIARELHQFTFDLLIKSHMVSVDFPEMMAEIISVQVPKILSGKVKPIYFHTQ
Assay: Measurement of organ selective androgen receptor regulating action (organ weights in castrated, testosterone propionate-supplemented rats)
Type: in vivo, Sprague-Dawley male rat
Parameters: from tissue; host or cells: Sprague-Dawley male rat, whole animal (levator ani muscle, prostate, vesicular gland)
Details: testosterone propionate 0.5 mg/kg s.c. once a day, twice a day, 1 week
Description: A 3-week-old Sprague-Dawley male rat was castrated, and testosterone•propionate (0.5 mg/kg) was administered subcutaneously once a day from the next day. Simultaneously, a test compound was dissolved in 10% ethanol/corn oil, and orally administered twice a day. The next day of a 1 week administration, the weights of the levator ani muscle, prostate and vesicular gland were measured. The dose of the test compound is indicated in a daily amount.
As the test compounds, compound 114, compound 158, compound 117, compound 119 and compound of Reference Example 2 were used.

[1] = test compound 3 mg/kg/day orally
[2] = test compound 10 mg/kg/day orally
[3] = test compound 4.143 mg/kg/day orally
[4] = test compound 13.81 mg/kg/day orally
[5] = test compound 0.4138 mg/kg/day orally
[6] = test compound 1.379 mg/kg/day orally

C[C@H]1[C@@H](C(C)(C)O)CCN1c1ccc(C#N)c2sccc12 [Reference Example 2, 4-[(2S,3S)-3-(1-hydroxy-1-methylethyl)-2-methylpyrrolidin-1-yl]-1-benzothiophene-7-carbonitrile]
levator ani muscle weight, relative % to control [1]: 108.0% | prostate weight, relative % to control [1]: 92.0% | levator ani muscle weight, relative % to control [2]: 120.1% | prostate weight, relative % to control [2]: 87.5%

4-[(2S,3R)-3-hydroxy-2-methyl-1-pyrrolidinyl]-1-naphtonitrile methanesulfonate [compound 114]
levator ani muscle weight, relative % to control [3]: 142.1% | prostate weight, relative % to control [3]: 90.6% | levator ani muscle weight, relative % to control [4]: 157.7% | prostate weight, relative % to control [4]: 99.1%

C[C@H]1[C@@H](O)CCN1c1ccc(C#N)c2sccc12 [compound 119, 4-[(2S,3S)-3-hydroxy-2-methyl-1-pyrrolidinyl]-1-benzothiophene-7-carbonitrile sulfate]
levator ani muscle weight, relative % to control [5]: 131.5% | prostate weight, relative % to control [5]: 87.8% | levator ani muscle weight, relative % to control [6]: 151.8% | prostate weight, relative % to control [6]: 91.4%
